The values that follow are results of earlier work, collected in US7687492B2, “1,2,4-Oxadiazole derivatives as dipeptidyl peptidase-IV inhibitors for the treatment or prevention of diabetes” (Merck Sharp & Dohme Corp., priority 2004, dated 2010).

The conditions of data set [1]: rats; Transplantation, 63: 1495-1500 (1997).
The conditions of data set [2]: mouse, cyclophosphamide-induced neutropenia; WO 99/56753.
In a further data set the target is T1, DP-IV (Homo sapiens, UniProt P27487).
T1 construct: GRF is rapidly degraded in plasma to GRF[3-44]; host or cells: plasma (endogenous enzyme activity)
T1 sequence (P27487 whole entry): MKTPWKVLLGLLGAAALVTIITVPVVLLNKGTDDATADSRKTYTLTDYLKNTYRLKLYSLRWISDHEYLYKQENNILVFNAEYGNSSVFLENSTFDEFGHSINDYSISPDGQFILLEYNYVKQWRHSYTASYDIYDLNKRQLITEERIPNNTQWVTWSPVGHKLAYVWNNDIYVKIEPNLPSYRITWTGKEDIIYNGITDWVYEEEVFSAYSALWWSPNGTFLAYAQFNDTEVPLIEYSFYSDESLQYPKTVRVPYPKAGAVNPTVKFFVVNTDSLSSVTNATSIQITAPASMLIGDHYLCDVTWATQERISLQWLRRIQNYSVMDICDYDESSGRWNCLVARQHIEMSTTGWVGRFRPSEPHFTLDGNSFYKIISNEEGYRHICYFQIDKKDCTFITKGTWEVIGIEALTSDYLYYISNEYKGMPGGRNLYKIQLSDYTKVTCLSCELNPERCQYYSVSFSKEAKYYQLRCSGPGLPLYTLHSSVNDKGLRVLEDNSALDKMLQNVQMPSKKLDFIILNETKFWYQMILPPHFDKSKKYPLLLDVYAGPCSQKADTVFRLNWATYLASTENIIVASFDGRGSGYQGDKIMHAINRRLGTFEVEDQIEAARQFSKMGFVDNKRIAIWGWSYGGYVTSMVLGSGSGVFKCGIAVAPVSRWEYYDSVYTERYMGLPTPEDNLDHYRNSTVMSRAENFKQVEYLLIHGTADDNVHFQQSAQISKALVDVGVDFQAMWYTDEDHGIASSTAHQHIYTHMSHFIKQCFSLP

As to `CC(C)N1CCC(c2ccccc2)(c2ccccc2)CC1` [Prodipine, Pro-Pro-diphenyl-phosphonate], the cardiac allograft survival result in data set [1] was “double cardiac allograft survival in rats from day 7 to day 14”. In the case of `CC(C)[C@H](N)C(=O)N1CCC[C@H]1B(O)O` [Val-Boro-Pro], the hematopoiesis result in data set [2] is reported as “stimulated hematopoiesis”. For the compound diprotin A, the “degradation of GRF in plasma to GRF[3-44]” value on DP-IV was “prevented”.
